Data published in patent US9606120B2, “Interfering peptides and method for detecting microorganisms” (BIOMÉRIEUX, priority 2012, dated 2017).

Test system: antibodies directed against the HCV Core, NS3 and NS4 proteins
Assay: Vidas anti-HCV antibody immunoenzymatic test (Operating Mode 1) carried out with interfering peptide added
Parameters: species or system human; key to Index: signal / standard S1 value; index ≥1 positive, <1 negative
Details: for Index: pos indices ≧1
Procedure: The disposable tip (SPR®) acts both as a solid phase and as a pipetting system. The surface of the tip is coated with antigens for the detection of antibodies directed against the HCV Core, NS3 and NS4 proteins. In a first step, the sample is diluted, and then suctioned up and down inside the tip. The anti-HCV antibodies present in the sample will bind to the antigens present inside the tip. Washing steps remove the unbound compounds. During the second step, (mouse) anti-human immunoglobulin (anti-IgG) monoclonal IgGs in Fab′ form, conjugated to recombinant alkaline phosphatase, are suctioned up and down inside the tip and will bind to the anti-HCV human Igs from the sample tested, bound to the antigens of the solid phase. Washing steps again remove the unbound compounds. […] The value of the fluorescence signal is proportional to the concentration of the antibody present in the sample. At the end of the test, the results are calculated automatically in the form of an index by the instrument, by dividing the value obtained by the value of the standard S1 brought back to 1 (value stored in the instrument). Thus, a sample of which the index is greater than or equal to 1 is considered to be positive by the immunoenzymatic test (presence of anti-HCV antibodies) and a sample of which the index is less than 1 is considered to be negative (absence of anti-HCV antibodies). In the paragraphs which follow, this HCV-antibody assay procedure will be referred to as “Operating Mode 1”, which corresponds to the assaying of anti-HCV antibodies without interfering peptide.
Several hundred serum samples, negative for HCV infection and originating from the Rhône-Alpes “Centres de Transfusion Sanguine” [Blood Banks], were screened in order to identify the samples which posed an interference problem. To do this, the samples were assayed according to Operating Mode 1 using the Vidas automated device. Only the sera that were positive according to Operating Mode 1 (index ≧1) were selected.
Such a difference between the result of Operating Mode 1 and that of the negative status established by the “Centres de Transfusion Sanguine” [Blood Banks] makes it possible to select the false-positive sera posing an interference problem.
Table 1 gives, for seven sera posing an interference problem and for the positive control C1, the results of assays carried out according to “Operating Mode 1” with or without the presence of the peptide V7E (SEQ ID No 2) or of the peptide Y7E (SEQ ID No 1). These peptides were added at a concentration of 5 μg/ml during the first step of the immunoenzymatic test protocol which corresponds to the dilution of the sample to be tested and the incubation thereof with the antigens present on the solid phase.
Likewise, table 2 gives, for two other sera posing an interference problem and for the positive control, the results of assays carried out according to Operating Mode 1 of the anti-HCV antibody detection protocol, with or without the presence of the peptide E8E (SEQ ID No 4), of the peptide A8E (SEQ ID No 3), or else of the peptide A6M (SEQ ID No 9). These peptides were added at a concentration of 1 μg/ml during the first step of the immunoenzymatic test protocol, which corresponds to the dilution of the sample to be tested, and the incubation thereof with the antigens present on the solid phase.

[1] = false-positive serum 295 (sample with interference), peptide 1 μg/ml in first step
[2] = false-positive serum F25 (sample with interference), peptide 1 μg/ml in first step
[3] = positive control C1 (commercial serum pool), peptide 1 μg/ml in first step
[4] = two sera posing an interference problem, peptide 1 μg/ml
[5] = false-positive serum 175 1811 (sample with interference), peptide 5 μg/ml in first step
[6] = false-positive serum 284 2408 (sample with interference), peptide 5 μg/ml in first step
[7] = false-positive serum 498 (sample with interference), peptide 5 μg/ml in first step
[8] = false-positive serum 801 1409 (sample with interference), peptide 5 μg/ml in first step
[9] = false-positive serum F53 3009 (sample with interference), peptide 5 μg/ml in first step
[10] = false-positive serum H48 (sample with interference), peptide 5 μg/ml in first step
[11] = false-positive serum M43 (sample with interference), peptide 5 μg/ml in first step
[12] = positive control C1 (commercial serum pool), peptide 5 μg/ml in first step
[13] = seven sera posing an interference problem, peptide 5 μg/ml

| Sequence | Index [1] | Index [2] | Index [3] | sera in which the interference is neutralized [4] | Index [5] | Index [6] | Index [7] | Index [8] | Index [9] | Index [10] | Index [11] | Index [12] | sera in which the interference is neutralized [13] |
| --- | --- | --- | --- | --- | --- | --- | --- | --- | --- | --- | --- | --- | --- |
| APYIEKGM (Streptococcus) [A6M, Streptococcus pneumoniae peptide, not according to the invention, used as a negative control, reference compound] | 1.04 | 2.90 | 3.05 | does not make it possible to neutralize the interference, in any of the sera |  |  |  |  |  |  |  |  |  |
| AQKRLAPYIE (Streptoccus) [A8E, amino acids 64-73 of Streptococcus pneumoniae ribosomal small subunit methyltransferase H protein] | 0.95 | 0.41 | 3.02 | 2/2 |  |  |  |  |  |  |  |  |  |
| ECSQHLPYIE (HCV) [E8E, amino acids 53-54 of HCV NS4A fused to amino acids 1-8 of HCV NS4B] | 0.90 | 0.85 | 2.92 | 2/2 |  |  |  |  |  |  |  |  |  |
| VSPTHYVPE (HCV) [V7E, amino acids 218-226 of the NS4B protein of HCV] |  |  |  |  | 0.49 | 1.51 | 0.35 | 1.04 | 0.39 | 1.17 | 0.42 | 3.06 | 4/7 |
| YSPTHYVPE (staphylococcus) [Y7E] |  |  |  |  | 0.47 | 0.86 | 0.14 | 0.71 | 0.32 | 0.88 | 0.17 | 3.02 | totally neutralize the interference in all the sera |
